We go through eleven compounds from US9790235B2, “MK2 inhibitors and uses thereof” (Celgene CAR LLC, priority 2014, dated 2017).

Assay [1] has as its target T1, MK2 (Homo sapiens (Human), UniProt P49137). Briefly: MK2 cellular assay, total and phospho-Hsp27 (Serine 78) by MSD ELISA (Thp1). It is filed as cell-based. The method in brief: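 PMA-differentiated (10 ng/mL, 72 h) Thp-1 cells were pretreated with compound (top 3000 nM) for 1 h at 37 °C, then stimulated with 50 ng/mL LPS for 45 min. Lysate phospho-Hsp27 (Ser78) and total Hsp27 were read by MSD electrochemiluminescence ELISA, and the value is expressed as percent phospho/total signal per well.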

Assay [2] has as its target T1, MK2.
Assay [3] has as its target p38α activated, mitogen-activated protein kinase-activated protein kinase 2 (MAPKAP-K2 or MK2) enzyme (Homo sapiens (Human), UniProt P49137). Briefly: MK2 Omnia continuous-read kinase assay for compound potency. Format: biochemical. The method in brief:
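Continuous fluorescence read (λex360/λem485) with 0.4 nM p38α-activated MK2, 10 μM ATP (apparent KM) and 10 μM S/T3-Sox peptide, monitored over 120 min at room temperature. Background-corrected initial slopes gave % inhibition and IC50 with Hill slope; exponential fits gave kobs, yielding apparent kinact/KI.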

[4] abbreviates: Thp-1 cells, 1 hour compound, 50 ng/mL LPS 45 minutes, p-HSP27 (Ser78)/total HSP27, read-out: pHSP27 signaling EC50.
[5] abbreviates: percentage of modified protein after 60 minutes at room temperature, 10-fold excess of compound, MALDI (I-1 to I-50), magnetic bead MALDI (I-51 to I-129).
The mark [6] stands for this setting: [MK-2]=0.4 nM, [ATP]=10 μM, [ST3-Sox]=10 μM, read-out: MK2 IC50.

pEC50, pIC50: −log10 of the molar value. Like-named read-outs stand apart in the source and are kept apart here.
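Throughout, for Mass Modification: covalent binding read from centroid mass shift of compound-treated versus untreated intact MK2, shift divided by compound molecular weight, giving fraction of total protein bound.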

Sequence of p38α activated, mitogen-activated protein kinase-activated protein kinase 2 (MAPKAP-K2 or MK2) enzyme (P49137 whole entry): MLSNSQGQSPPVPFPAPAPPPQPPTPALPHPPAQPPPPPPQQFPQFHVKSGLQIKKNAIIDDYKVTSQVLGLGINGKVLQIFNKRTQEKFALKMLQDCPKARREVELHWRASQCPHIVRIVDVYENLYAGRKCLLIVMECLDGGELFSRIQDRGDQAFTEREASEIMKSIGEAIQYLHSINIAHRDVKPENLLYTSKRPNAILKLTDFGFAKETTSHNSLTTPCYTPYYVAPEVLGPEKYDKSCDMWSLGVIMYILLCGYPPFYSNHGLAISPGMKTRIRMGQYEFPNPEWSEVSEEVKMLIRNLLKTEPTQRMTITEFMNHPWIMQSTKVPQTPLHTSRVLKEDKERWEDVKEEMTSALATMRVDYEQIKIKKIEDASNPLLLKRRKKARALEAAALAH
T1 sequence (P49137 whole entry): as above

What is called pEC50 is the EC50 on a negative log10 scale, so that one unit is a factor of ten. The term pIC50 denotes −log10 of the IC50, conventionally taken in molar units. On to `C[C@@H]1CNc2c(sc3ccc4nc(Nc5cc(F)nc(CN6CCCCC6)n5)ccc4c23)C(=O)N1` [I-74, (R)-3-((6-fluoro-2-(piperidin-1-ylmethyl)pyrimidin-4-yl)amino)-10-methyl-9,10,11,12-tetrahydro-8H-[1,4]diazepino[5′,6′:4,5]thieno[3,2-f]quinolin-8-one], for which the pEC50 on MK2 [1] (setting [4]) is over 7.00. Further, the “Mass Modification” value at MK2 [2] (setting [5]) is “E (mass modification of ≧70%)”. In addition, the pIC50 in assay [3] (setting [6]) was over 7.00.
Consider `CCOC(=O)c1cnc(Cl)nc1Nc1ccc2c(ccc3sc4c(c32)NC[C@@H](C)NC4=O)n1` [I-18, (R)-ethyl 2-chloro-4-((10-methyl-8-oxo-9,10,11,12-tetrahydro-8H-[1,4]diazepino[5′,6′:4,5]thieno[3,2-f]quinolin-3-yl)amino)pyrimidine-5-carboxylate], for which the negative-log EC50 (pEC50) on MK2 [1] (setting [4]) was 6.30 to 7.00. The “Mass Modification” value on MK2 [2] (setting [5]) is given as “F (mass modification of 31-69%)”. The pIC50 in assay [3] (setting [6]) is over 7.00.
For the compound `COC(=O)c1nc(Cl)cc(Oc2ccc3c(ccc4sc5c(c43)NC[C@@H](C)NC5=O)n2)n1` [I-71, (R)-methyl 4-chloro-6-((10-methyl-8-oxo-9,10,11,12-tetrahydro-8H-[1,4]diazepino[5′,6′:4,5]thieno[3,2-f]quinolin-3-yl)oxy)pyrimidine-2-carboxylate], the pEC50 at MK2 [1] (setting [4]) is over 7.00. The “Mass Modification” value on MK2 [2] (setting [5]) is recorded as “E (mass modification of ≧70%)”. Also, in assay [3] (setting [6]), the pIC50 is over 7.00.
As for `C[C@@H]1CNc2c(sc3ccc4nc(Oc5nc(Cl)ncc5CN5C[C@@H](C)N[C@@H](C)C5)ccc4c23)C(=O)N1` [I-115, (R)-3-((2-chloro-5-(((3R,5S)-3,5-dimethylpiperazin-1-yl)methyl)pyrimidin-4-yl)oxy)-10-methyl-9,10,11,12-tetrahydro-8H-[1,4]diazepino[5′,6′:4,5]thieno[3,2-f]quinolin-8-one], on MK2 [1] (setting [4]), the pEC50 is under 6.00. On MK2 [2] (setting [5]), the “Mass Modification” value was “E (mass modification of ≧70%)”. Also, the negative-log IC50 (pIC50) in assay [3] (setting [6]) is 6.30 to 7.00.
With `O=C1N[C@H](CO)CNc2c1sc1ccc3nc(Nc4cc(F)ncn4)ccc3c21` [I-17, (S)-3-((6-fluoropyrimidin-4-yl)amino)-10-(hydroxymethyl)-9,10,11,12-tetrahydro-8H-[1,4]diazepino[5′,6′:4,5]thieno[3,2-f]quinolin-8-one], the negative logarithm of the EC50 (pEC50) on MK2 [1] (setting [4]) was under 6.00. Besides, the “Mass Modification” value at MK2 [2] (setting [5]) is “F (mass modification of 31-69%)”. Further, the negative logarithm of the IC50 (pIC50) in assay [3] (setting [6]) was over 7.00.
Consider `C[C@@H]1CNc2c(sc3ccc4nc(Nc5nc(Cl)ncc5C#N)ccc4c23)C(=O)N1` [I-16, (R)-2-chloro-4-((10-methyl-8-oxo-9,10,11,12-tetrahydro-8H-[1,4]diazepino[5′,6′:4,5]thieno[3,2-f]quinolin-3-yl)amino)pyrimidine-5-carbonitrile], for which the pEC50 on MK2 [1] (setting [4]) is over 7.00. Also, the “Mass Modification” value on MK2 [2] (setting [5]) was “E (mass modification of ≧70%)”. Also, in assay [3] (setting [6]), the negative logarithm of the IC50 (pIC50) is over 7.00.
As for `C[C@@H]1CNc2c(sc3ccc4nc(Nc5cc(Cl)ncc5C#N)ccc4c23)C(=O)N1` [I-25, (R)-6-chloro-4-((10-methyl-8-oxo-9,10,11,12-tetrahydro-8H-[1,4]diazepino[5′,6′:4,5]thieno[3,2-f]quinolin-3-yl)amino)nicotinonitrile], the negative logarithm of the EC50 (pEC50) on MK2 [1] (setting [4]) is over 7.00. Besides, on MK2 [2], the “Mass Modification” value was “F (key: E: mass modification of ≧70%; F: mass modification of 31-69%; G: mass modification ≦30%)”. Further, in assay [3] (read-out: MK2 IC50), the pIC50 is over 7.00.
For `C[C@@H]1CNc2c(sc3ccc4nc(Nc5cc(F)ncc5C#N)ccc4c23)C(=O)N1` [I-27, (R)-6-fluoro-4-((10-methyl-8-oxo-9,10,11,12-tetrahydro-8H-[1,4]diazepino[5′,6′:4,5]thieno[3,2-f]quinolin-3-yl)amino)nicotinonitrile], at MK2 [1] (setting [4]), the negative-log EC50 (pEC50) is over 7.00. Besides, the “Mass Modification” value on MK2 [2] (setting [5]) is listed as “G (mass modification ≦30%)”. The pIC50 in assay [3] (setting [6]) is over 7.00.
As to `C[C@@H]1CNc2c(sc3ccc4nc(Oc5nc(Cl)nc6c5CS(=O)(=O)CC6)ccc4c23)C(=O)N1` [I-105, (R)-3-((2-chloro-6,6-dioxido-7,8-dihydro-5H-thiopyrano[4,3-d]pyrimidin-4-yl)oxy)-10-methyl-9,10,11,12-tetrahydro-8H-[1,4]diazepino[5′,6′:4,5]thieno[3,2-f]quinolin-8-one], the pEC50 on MK2 [1] (setting [4]) is 6.30 to 7.00. Moreover, the “Mass Modification” value at MK2 [2] (setting [5]) is “E (mass modification of ≧70%)”. In addition, in assay [3] (setting [6]), the pIC50 is over 7.00.
As for `CNC[C@@H]1CNc2c(sc3ccc4nc(Nc5cc(F)ncn5)ccc4c23)C(=O)N1` [I-35], the pEC50 at MK2 [1] (setting [4]) was 6.00 to 6.30. Further, at MK2 [2] (setting [5]), the “Mass Modification” value is recorded as “F (mass modification of 31-69%)”. The pIC50 in assay [3] (setting [6]) was 6.30 to 7.00.
On to `C[C@@H]1CNc2c(sc3ccc4nc(N(CCN(C)C)c5cc(F)ncn5)ccc4c23)C(=O)N1` [I-33, (R)-3-((2-(dimethylamino)ethyl)(6-fluoropyrimidin-4-yl)amino)-10-methyl-9,10,11,12-tetrahydro-8H-[1,4]diazepino[5′,6′:4,5]thieno[3,2-f]quinolin-8-one], for which the negative-log EC50 (pEC50) on MK2 [1] was under 6.00. For the same compound, on MK2 [2] (setting [5]), the “Mass Modification” value is “F (mass modification of 31-69%)”. Moreover, the pIC50 in assay [3] is 6.00 to 6.30.
